Columns and labels:
[1] = test system: NF-κB, pro-inflammatory cytokines, pro-fibrotic proteins; conditions: cited from earlier work
[2] = test system: therapy-induced pneumonitis and pulmonary fibrosis; experiment: Genistein phase 1b/2a trial in NSCLC patients on chemoradiotherapy: toxicity and adverse events; format: in vivo, human
Experimental: FIGS. 3A and 3B are graphs plotting pulmonary adverse event incidence rates in non-small cell lung cancer (NSCLC) clinical trials.
The drug was added to patients' chemoradiotherapy regimens to reduce the incidence of therapy-induced pneumonitis and pulmonary fibrosis. […] Patients ingested the suspension once daily for one week prior to chemoradiotherapy, and also while on concurrent chemoradiotherapy for a total of six to eight weeks.

[3] = test system: radiation-induced fibrosis; conditions: rat RiED model; treatment starting two hours after radiation exposure; cited from earlier work
[4] = test system: normal lung tissue (WTLI-irradiated); experiment: A549 mouse xenograft model with WTLI: radioprotection of normal lung tissue; format: in vivo, athymic CD1 nu/nu mice; conditions: A549 xenograft mice
Excerpt: FIG. 2A is an image of a mouse in which A549 cells were implanted subcutaneously, followed by treatment with 12.5 Gy of radiotherapy (RT). […] The white box indicates the path of radiation, and the circle indicates the tumor site.
Other nonclinical studies focused on protection of the lungs in the context of cancer radiotherapy. A549 lung cancer cells were implanted subcutaneously in athymic CD1 nu/nu mice. The location of the implant was specific, so that a single dose of WTLI would hit the tumor and the normal lung tissue (FIG. 2A). Mice were then administered a nanoparticulate genistein suspension or vehicle control by daily oral gavage for seven days prior to WTLI and continuing until the end of the study.

[5] = test system: radiation-induced edema and fibrosis in the lung; experiment: Mouse model of DEARE-lung: whole thoracic lung irradiation (WTLI) followed by oral genistein suspension; format: in vivo; conditions: WTLI mice
Experimental: FIG. 1A includes representative images of animal lungs stained with Masson's Trichrome. Images on the left are whole-lung, and images on the right are high magnification (10×). […] Error bars ±SEM.
Animals were treated for two, four, or six weeks.

[6] = several pharmaceutically acceptable solvents; cited from earlier work
[7] = test system: SARS-CoV-2; experiment: K18-hACE2 transgenic mouse model of SARS-CoV-2 infection; format: in vivo
[8] = daily oral gavage from 7 days before WTLI to end of study
[9] = K18-hACE2 Mouse Study 2, oral BID 7 d

Compound: O=c1c(-c2ccc(O)cc2)coc2cc(O)cc(O)c12 [genistein, 5,7-dihydroxy-3-(4-hydroxyphenyl)-4H-chromen-4-one]
- expression of NF-κB, pro-inflammatory cytokines (IL-1, IL-6, TNFα) and pro-fibrotic proteins (TGFβ, MMP-2, MMP-9, LDH) [1]: reduce expression
- patients who developed pulmonary fibrosis ([2]; 21 NSCLC patients treated, to date, 9% in historical study): none
- occurrences of pulmonary fibrosis one year later ([2]; NSCLC patients, one year later): no occurrences of pulmonary fibrosis
- severity of dyspnea ([2]; NSCLC patients, vs historical trial): less severe
- fibrosis [3]: significantly reduced fibrosis
- wet lung weight (indicator of pneumonitis) ([4]; WTLI, vs vehicle): reduced wet lung weight
- congestion and cellular infiltrate, H&E [4, 8]: reduced congestion and minimal cellular infiltrate
- normal lung tissue remodeling (thickening of the septal wall), H&E [4, 8]: marked reduction in normal lung tissue remodeling
- immune infiltrate, edema and fibrosis of the lungs (histopathology and wet lung weight) ([5]; daily from 24 hours after irradiation for two, four or six weeks, vs controls): significantly less immune infiltrate, edema, and fibrosis of the lungs
- levels of fibrosis (Masson's Trichrome staining, Ashcroft scoring) ([5]; treatment started 24, 72 or 120 hours (within five days) after radiation): reduction in pulmonary fibrosis
- solubility [6]: low to virtually no solubility
- lung pathology [7, 9]: improved lung pathology
- pro-inflammatory cytokine expression [7, 9]: reduced pro-inflammatory cytokine expression
- survival ([7]; mouse, in vivo, po): increase in survival

From patent US20230143352A1 (Humanetics Corporation, priority 2020, published 2023)
